Results published in patent publication US20240165109A1, “Methods of Treatment with Selective CB2 Receptor Agonists” (Arena Pharmaceuticals, Inc., priority 2021, published 2024).

How the values were obtained:
[1] = system: osteoarthritis pain; experiment: osteoarthritis pain model; format: in vivo
Description: (§1) Methods of treating pain, including visceral pain with APD371 are described in US patent application publication no. 2020-0078358, which is herein incorporated by reference in its entirety.

[2] = system: painful peripheral diabetic neuropathy; experiment: painful peripheral diabetic neuropathy model; settings: in vivo
Description: as §1

[3] = target: T1, rat CB2 receptors (Rattus norvegicus, UniProt Q9QZN9); experiment: CB2 receptor internalization efficacy relative to CP55,940 (rat); format: cell-based
T1 sequence (Q9QZN9 1-360): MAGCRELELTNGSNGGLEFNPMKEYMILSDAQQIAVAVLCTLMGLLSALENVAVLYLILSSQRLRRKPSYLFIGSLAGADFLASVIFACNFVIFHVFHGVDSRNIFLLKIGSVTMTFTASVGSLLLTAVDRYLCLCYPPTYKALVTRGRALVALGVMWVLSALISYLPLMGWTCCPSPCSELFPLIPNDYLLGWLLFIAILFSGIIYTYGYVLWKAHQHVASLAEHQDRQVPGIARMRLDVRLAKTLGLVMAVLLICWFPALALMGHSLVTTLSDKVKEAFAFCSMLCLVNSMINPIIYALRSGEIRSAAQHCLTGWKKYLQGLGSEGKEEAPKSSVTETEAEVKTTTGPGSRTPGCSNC
Description: as §1

[4] = target: T2, human CB2 receptor (Homo sapiens, UniProt P34972); experiment: selectivity for human CB2 receptor versus human CB1 receptor; settings: human CB2 vs human CB1
Description: as §1

[5] = system: paclitaxel-induced neuropathic pain; experiment: paclitaxel-induced neuropathic pain model; settings: in vivo
Description: as §1

[6] = target: T2, human CB2 receptor; experiment: CB2 receptor internalization efficacy relative to CP55,940 (human); format: cell-based
Description: as §1

[7] = system: subjects with irritable bowel syndrome experiencing abdominal pain; settings: 50 mg tid, week 12, subgroup with baseline AAPS >= 6.5 (moderate to severe pain)

T2 sequence (P34972 whole entry): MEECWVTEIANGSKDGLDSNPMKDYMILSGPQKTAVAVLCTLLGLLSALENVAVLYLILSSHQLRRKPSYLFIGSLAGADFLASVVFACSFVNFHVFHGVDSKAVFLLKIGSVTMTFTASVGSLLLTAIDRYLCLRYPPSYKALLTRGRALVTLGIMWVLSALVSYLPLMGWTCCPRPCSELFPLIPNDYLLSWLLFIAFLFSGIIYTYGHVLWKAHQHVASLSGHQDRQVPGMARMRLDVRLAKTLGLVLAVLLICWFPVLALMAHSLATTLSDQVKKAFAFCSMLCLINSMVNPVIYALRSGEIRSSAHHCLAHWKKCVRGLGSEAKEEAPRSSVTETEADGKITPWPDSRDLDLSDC

## CC(C)(C)[C@@H](CO)NC(=O)c1nn(-c2c[n+]([O-])ccn2)c2c1C[C@@H]1C[C@H]21 [Compound A, (1aS,5aS)-2-(4-Oxy-pyrazin-2-yl)-1a,2,5,5a-tetrahydro-1H-2,3-diaza-cyclopropa[a]pentalene-4-carboxylic acid ((S)-1-Hydroxymethyl-2,2-dimethyl-propyl)-amide]
[1]; in vivo
  efficacy in model of osteoarthritis pain: sustained efficacy
[1]; osteoarthritis pain model, despite rapidly declining plasma concentrations
  duration of in vivo efficacy following dosing: maintained in vivo efficacy for four hours following dosing
[2]
  efficacy in model of painful peripheral diabetic neuropathy: sustained efficacy
[3]
  receptor internalization efficacy relative to CP55,940: 105%
[4]
  selectivity for the human CB2 receptor versus the human CB1 receptor: > 1,000 fold
[5]
  efficacy in model of paclitaxel-induced neuropathic pain: sustained efficacy
[6]
  receptor internalization efficacy relative to CP55,940: 96%
[7]
  reduction in AAPS from baseline: 3.93 points
[7]; p=0.01
  reduction in AAPS compared to placebo: 1.64 points
